This passage reports Activity results from ChEMBL document CHEMBL1147334, “Starfish saponins, part 49. New cytotoxic steroidal glycosides from the starfish Fromia monilis” (J Nat Prod, 1993).

For the series, the system named is Vero. Put plainly: Cytotoxicity against african green monkey Vero cells after 24 hrs measured per 5x10^5 cells by neutral red uptake assay. The format is cell-based. Conditions: chlorocebus sabaeus.

Regarding `CO[C@H]1[C@H](O[C@H]2CC[C@]3(C)C4=CC[C@]5(C)[C@@H]([C@H](C)CC[C@H](O)C(C)C)C[C@@H](O)[C@H]5C4=CC[C@H]3C2)OC[C@@H](O)[C@@H]1O` [MONILOSIDE A], the Activity is 3 µg.

`CO[C@@H]1[C@@H](O)[C@H](O[C@@H]2CO[C@@H](O[C@@H]3CO[C@@H](OCC[C@@H](CC[C@@H](C)[C@H]4[C@@H](O)[C@@H](O)[C@@H]5[C@]4(C)CC[C@@H]4[C@@]6(C)CC[C@H](O)[C@H](O)[C@@H]6[C@@H](O)C[C@]45O)C(C)C)[C@H](O)[C@H]3O)[C@H](O)[C@H]2O)OC[C@H]1O` [MONILOSIDE I] came in with an Activity of 1 µg.

Regarding `CO[C@@H]1[C@@H](O)[C@H](O[C@@H]2CO[C@@H](O[C@@H]3CO[C@@H](OCC[C@@H](/C=C/[C@@H](C)[C@H]4[C@@H](O)[C@@H](O)[C@@H]5[C@]4(C)CC[C@@H]4[C@@]6(C)CC[C@H](O)[C@H](O)[C@@H]6[C@@H](O)C[C@]45O)C(C)C)[C@H](O)[C@H]3O)[C@H](O)[C@H]2OC)OC[C@H]1O`, the Activity came out at 10 µg.

In the case of `CO[C@@H]1[C@@H](O)[C@H](OCC[C@@H](CC[C@@H](C)[C@H]2[C@@H](O)[C@@H](O)[C@@H]3[C@]2(C)CC[C@@H]2[C@@]4(C)CC[C@H](O)[C@H](O)[C@@H]4[C@@H](O)C[C@]23O)C(C)C)OC[C@H]1O[C@@H]1OC[C@H](O)[C@H](O)[C@H]1O` [MONILOSIDE E], the Activity came out at 10 µg.

Regarding `CO[C@H]1[C@H](O[C@H]2CC[C@]3(C)C4=CC[C@]5(C)[C@@H]([C@H](C)CC[C@H](O)C(C)C)C[C@@H](O)[C@H]5C4=CC[C@H]3[C@H]2O)OC[C@@H](O)[C@@H]1O` [MONILOSIDE B], the Activity was 3 µg.

Turning to `CO[C@H]1[C@H](O[C@H]2CC[C@@]3(C)[C@H]([C@H]2O)[C@H](O)C[C@]2(O)[C@@H]3CC[C@]3(C)[C@@H]([C@H](C)CC[C@H](O)C(C)C)C[C@@H](O)[C@H]32)OC[C@@H](O)[C@@H]1O` [MONILOSIDE D], the Activity stood at 3 µg.

Turning to `CO[C@@H]1[C@@H](O)[C@H](O[C@@H]2CO[C@@H](O[C@@H]3CO[C@@H](OCC[C@@H](CC[C@@H](C)[C@H]4[C@@H](O)[C@@H](O)[C@@H]5[C@]4(C)CC[C@@H]4[C@@]6(C)CC[C@H](O)[C@H](O)[C@@H]6[C@@H](O)C[C@]45O)C(C)C)[C@H](O)[C@H]3O)[C@H](O)[C@H]2OC)OC[C@H]1O` [MONILOSIDE G], the Activity turned out to be 10 µg.

For the compound `CO[C@H]1[C@H](O[C@H]2CC[C@@]3(C)[C@H]([C@H]2O)[C@H](O)C[C@H]2[C@@H]4[C@H](O)C[C@H]([C@H](C)CC[C@H](O)C(C)C)[C@@]4(C)CC[C@@H]23)OC[C@@H](O)[C@@H]1O` [MONILOSIDE C], the Activity was 3 µg.

The compound `CO[C@@H]1[C@@H](O)[C@H](OCC[C@@H](/C=C/[C@@H](C)[C@H]2[C@@H](O)[C@@H](O)[C@@H]3[C@]2(C)CC[C@@H]2[C@@]4(C)CC[C@H](O)[C@H](O)[C@@H]4[C@@H](O)C[C@]23O)C(C)C)OC[C@H]1O[C@@H]1OC[C@H](O)[C@H](O)[C@H]1O` [MONILOSIDE F] had an Activity of 10 µg.
